Data: ChEMBL document CHEMBL3507680, “University of Dundee, Gates Library screen for HepG2 cell viability”

Assay: Human HepG2 cell viability assay in 384 well format
Type: toxicity, cell-based
Set-up: dose 125 nL, time 70.5 hour; cytotoxicity at 70.5 h: concentration not given beside the values
Conditions: HepG2 cells, read-out: Inhibition

Row | SMILES | cytotoxicity at 70.5 h [%]
1 | CC(=O)c1cn(CCC(=O)Nc2c3c(nn2C)CSC3)c2ccccc12 | 14.7
2 | COCc1nnc(NC(=O)CN2C(=O)c3ccccc3NC2C(C)C)s1 (stereo not drawn) | -12.3
3 | O=c1c(NCc2ccco2)c(NCC(O)CN2CCOCC2)c1=O (stereo not drawn) | -6.2
4 | O=c1c(NCCc2ccc(O)cc2)c(NCc2ccncc2)c1=O | -0.102
5 | CNc1c(NCc2ccco2)c(=O)c1=O | -12.4
6 | CC(C)CNC(=O)CNc1c(NCc2ccncc2)c(=O)c1=O | 4.58
7 | O=c1c(NCCOCCO)c(N2CCN(c3ccccc3)CC2)c1=O | -2.63
8 | COCCn1ccc(=O)c(OCC(=O)Nc2cccc(Cl)c2)c1C | -8.65
9 | COc1c[nH]c(C(=O)N2CCN(c3cccc(Cl)c3)CC2)cc1=O | -8.19
10 | COc1ccc(N2CCN(C(=O)c3cc(=O)c(OC)c[nH]3)CC2)cc1 | -6.09
11 | Cc1nn(C)cc1C1CC(=O)Nc2c1cnn2C(C)C (stereo not drawn) | -10.7
12 | Cc1c(C2CC(=O)Nc3c2cnn3C(C)C)cnn1C (stereo not drawn) | -10.4
13 | CN1CCN(CC(CC(=O)Nc2ccc(Cl)cc2)C(=O)O)CC1 (stereo not drawn) | -5.4
14 | CN(Cc1ccccc1)C(=O)Cn1nc(N2CCSCC2)ccc1=O | -6.57
15 | Cc1cc(NCCO)nc2[nH]nc(N)c12 | -14.9
16 | COc1ccc(CNC(=O)CCCc2nnc3ccc(OC)nn23)cc1 | -14.6
17 | Cn1ccc2c(NC(=O)Cn3ncc4c(c3=O)CCCCC4)cccc21 | 3.29
18 | CC(C)Nc1oc(-c2ccc(S(=O)(=O)N(C)C)o2)nc1C#N | -8.63
19 | Cc1nn2cnnc2c(C)c1CCC(=O)Nc1nnc(C2CC2)s1 | -10.7
20 | CC1=Nc2c(c(=O)[nH]n2C2CCCC2)C(c2ccc(O)cc2)S1 (stereo not drawn) | -22.9
21 | COc1ccc(C2SC(C)=Nc3c2c(=O)[nH]n3C2CCCC2)cc1O (stereo not drawn) | -18.9
22 | Cn1ccc2c(NC(=O)Cn3ncc4c(c3=O)CCCC4)cccc21 | 6.85

Row | SMILES | cytotoxicity at 70.5 h [%]
23 | CC1=Nc2c(c(=O)[nH]n2C(C)C)C(c2cccc(OC(F)F)c2)S1 (stereo not drawn) | -17.2
24 | O=C(CCc1ccc(-n2cnnn2)cc1)Nc1nncs1 | -8.9
25 | Cn1cc(NC(=O)CNC(=O)N2CCN(c3ccccc3)CC2)cn1 | -8.66
26 | O=C(CC1CCCC1)Nc1ccc(-n2cc(Cl)cn2)nc1 | -12.3
27 | COc1cccc2c1ccn2CCNC(=O)CC(C)C | -15.1
28 | Cc1nc(C(=O)Nc2cccnc2)c(C(C)C)s1 | -6.88
29 | COc1ccc2nnc(CCCC(=O)NCc3ccccc3F)n2n1 | 21.9
30 | COc1ccc2nnc(CCCC(=O)Nc3nc4c(s3)CCC4)n2n1 | -17.4
31 | O=C(Nc1cccnc1-n1cc(Cl)cn1)C1CCCCC1 | -26.8
32 | CC(C)CC1CC(=O)Nc2c1cnn2Cc1ccco1 (stereo not drawn) | -22.8
33 | Cc1nn(-c2ncnc3[nH]cnc23)c2c1C(C(C)(C)C)CC(=O)N2 (stereo not drawn) | 0.0512
34 | O=C(CCc1nc2cc(Br)cnc2[nH]1)NCc1cccnc1 | -17.1
35 | O=c1cc2c(nn1CN1CCN(c3ccc(F)cc3)CC1)CCC2 | -13.2
36 | O=C(Nc1cccnc1-n1cc(Cl)cn1)C1CC1 | -27.5
37 | CC(C)C1CC(=O)Nc2c1cnn2Cc1ccco1 (stereo not drawn) | -15.8
38 | O=c1cc2c(nn1CN1CCN(c3ccccc3)CC1)CCCC2 | -15
39 | COC(=O)[C@H](CCSC)NC(=O)Cc1c(C)nn(-c2ccccc2)c1C | -11.6
40 | COc1ccc2nnc(CCC(=O)Nc3nc4c(s3)CCCC4)n2n1 | -11.9
41 | Cc1ccc(S(=O)(=O)c2ncccc2CN2CCCCC2)cc1 | -21
42 | CC(C)C1SCC(=O)Nc2c1cnn2C(C)C (stereo not drawn) | -23.1
43 | O=c1c(CN2CCOCC2)coc(O)c1CN1CCOCC1 | -7.31
44 | CN(C)CC(=O)N1CCc2ncnc(-c3ccsc3)c2CC1 | -0.46

Row | SMILES | cytotoxicity at 70.5 h [%]
45 | CCn1nnc2c1CCN(S(C)(=O)=O)C2COCc1ccccc1 (stereo not drawn) | 2.15
46 | c1csc(CN2C[C@H]3CCC[C@@]3(COCC3CCOCC3)C2)n1 | 1.66
47 | CNC(=O)N1CC[C@@H]2CN(CCc3cccc(OC)c3)S(=O)(=O)[C@@H]2CC1 | -0.824
48 | c1ccc(COC[C@@]23CCC[C@@H]2CN(Cc2ccccn2)C3)nc1 | 0.536
49 | CN1CCN(Cc2ccco2)Cc2cccnc21 | 0
50 | O=C([C@H]1C[C@H]2OCC[C@H]2N(CC2CC2)C1)N1CCCC1 | 5.6
51 | Cn1cc(CN2CCc3ncnc(C4CCOC4)c3CC2)cn1 (stereo not drawn) | 6
52 | Cn1cccc1C(=O)N1CC[C@H]2[C@@H]1CCC(=O)N2c1ccccc1 | 11.6
53 | O=C(Cc1ccccc1)N1CC[C@@H]2CNS(=O)(=O)[C@@H]2CC1 | 2.48
54 | Cn1cccc1C(=O)N1CC[C@H]2[C@@H]1CCC(=O)N2CC1CC1 | 3.01
55 | O=C(NC1CC1)N1CCc2ccc(=O)n(CC3CC3)c2CC1 | -1.74
56 | O=C(NC1CC1)N1CCc2ccc(=O)n(Cc3ccncc3)c2CC1 | 12.1
57 | COCCNC(=O)[C@]12COC[C@H]1CN(c1cc(OC)ncn1)C2 | -1.98
58 | CN1CC(c2ccccc2)C2(CCN(C(=O)c3cccn3C)CC2)C1=O (stereo not drawn) | 1.54
59 | COc1cc(N2C[C@@H]3COC[C@]3(C(=O)NCc3ccccn3)C2)ncn1 | -3.03
60 | CCc1cnc(N2CC[C@@H]3CN(C(C)=O)CCO[C@@H]3C2)nc1 | -2.86
61 | CN1C(=O)CC(c2ccccc2)C12CCN(C(=O)c1ccc[nH]1)CC2 (stereo not drawn) | -4.56
62 | c1csc(CN2CCC3(CC2)COCCN3CC2CC2)n1 | -10.1
63 | CN1CCN(CC2CC2)C(=O)C12CCN(C(=O)c1cnccn1)CC2 | -3.74
64 | O=C(c1ccco1)N1CCO[C@@H]2CN(c3ncc(F)cn3)CC[C@@H]2C1 | -5.01
65 | Cn1nc(COCC2CC2)c2c1CCN(C(=O)c1ccno1)C2 | -10.9
66 | CN1CC[C@]2(CN(C(=O)c3ccc[nH]3)C[C@H]2c2ccccc2)C1=O | -3.54

Row | SMILES | cytotoxicity at 70.5 h [%]
67 | O=C(c1ccoc1)N1CC[C@@H]2[C@@H](CC1)OCCN2c1cccnc1 | -5.9
68 | CCOCc1nn(CC2CC2)c2c1CN(C(=O)c1ccno1)CC2 | -7.44
69 | CO[C@@H]1CCN(c2ncc(F)cn2)[C@@H]2CN(CC3CC3)C[C@@H]21 | -11.2
70 | CCN1C[C@H]2CCN(C(=O)c3cc[nH]n3)CC[C@H]2S1(=O)=O | -14.6
71 | O=S(=O)(c1ccccc1)N1C[C@@H]2COC[C@]2(COCC2CC2)C1 | 1.08
72 | c1cc([C@H]2C[C@@H]3CCN(Cc4nccs4)C[C@H]3O2)ncn1 | -3.39
73 | Cc1ncnc2c1CCN(C(=O)CN(C)C)CC2 | 19.6
74 | O=C1COC2(CCN(c3cccc(F)c3)CC2)CN1Cc1ccccn1 | 0.382
75 | CC(C)NC(=O)[C@H]1C[C@@H]2[C@@H](C1)OCCN2CC1CC1 | -3.31
76 | COc1cccc(CCN2C[C@H]3CCNCC[C@H]3S2(=O)=O)c1 | 23.9
77 | CCOc1ncnc2c1CCN(C(=O)CN(C)C)CC2 | 0.621
78 | O=C(c1ccccc1-c1ccccc1)N1C[C@@H]2CNC[C@]2(C(=O)O)C1 | 1.22
79 | O=C([C@H]1C[C@H]2OCC[C@H]2N(CC2CCOCC2)C1)N1CCCC1 | -2.01
80 | Fc1ccc(N2CCC3(CC2)CC(OCc2cccnc2)CO3)cc1 (stereo not drawn) | 0.624
81 | COc1cccc(CN2CCC3(CCN(c4ncc(F)cn4)CC3)C2)c1 | 0.663
82 | O=S1(=O)NC[C@H]2CCN(Cc3ccccc3)CC[C@H]21 | -2.52
83 | N#Cc1ccc(CN2CC3(CCCCN3c3cccnc3)CC2=O)cc1 (stereo not drawn) | 1
84 | CNC(=O)COC1COC2(CCN(c3cnccn3)CC2)C1 (stereo not drawn) | 4.72
85 | Cc1ccc(CN2CCOC3(CCN(C(=O)C4CCOC4)CC3)C2)cc1 (stereo not drawn) | -1.7
86 | Cc1noc(C)c1CN1CCC2(CC1)CCN(C(=O)c1cscn1)C2 | 10.4
87 | CCc1ccc(CN2CC[C@@H]3CN(S(C)(=O)=O)CCO[C@@H]3C2)o1 | -3.27
88 | COCCN1CCN(C)C2(CCN(C(=O)c3ccnnc3)CC2)C1=O | -0.603

Row | SMILES | cytotoxicity at 70.5 h [%]
89 | CN1CCC2(CCN(CC3CCOCC3)CC2)C1=O | -10.4
90 | CS(=O)(=O)N1CCCC12CCN(Cc1nccs1)C2 (stereo not drawn) | -1.64
91 | O=C(c1ccco1)N1CCO[C@@H]2CN(c3ccccn3)CC[C@@H]2C1 | -4.86
92 | CC(C)CN1CCS(=O)(=O)[C@@H]2CCN(S(=O)(=O)C3CC3)CC[C@@H]21 | -16.5
93 | CN1CCC2(CCN(CC3CC3)CC2)C1=O | -7.27
94 | CS(=O)(=O)N1CCCCC12CCCN(Cc1nccs1)C2 (stereo not drawn) | 11.6
95 | CO[C@@H]1CC[C@H]2[C@H]1OCCN2C(=O)c1ccc(C)nc1 | -3.99
96 | COCCN1CCN(Cc2ccco2)Cc2ccc(C)nc21 | 2.35
97 | Fc1cnc(N2CCC3(CC2)CN(Cc2ccccn2)CCO3)nc1 | 5.75
98 | c1ccc(CN2C[C@H]3CCC[C@@]3(COCC3CC3)C2)nc1 | -0.925
99 | O=C(C1CN(Cc2ccsc2)Cc2ccnn2C1)N1CCCC1 (stereo not drawn) | 2.84
100 | CS(=O)(=O)N1CCO[C@@H]2CN(Cc3ccncc3)C[C@@H]2C1 | -5.73
101 | c1csc(CN2CCC3(CCCN3CC3CC3)CC2)n1 | -4.63
102 | O=S(=O)(c1cccnc1)N1C[C@@H]2COC[C@]2(CN2CCOCC2)C1 | -4.52
103 | COc1ccc2c(c1)C1(CCN(Cc3ccccn3)CC1)N(C)CC2 | 0.00866
104 | c1ccc(CN2CCOC3(CCN(c4ncccn4)CC3)C2)nc1 | 12
105 | Fc1cccc(N2CCCC3(CN(Cc4ccccn4)CCO3)C2)c1 (stereo not drawn) | -1.7
106 | Cc1cccc(CN2Cc3[nH]nc(COc4cccnc4)c3C2)n1 | -3.62
107 | Cn1cnc(S(=O)(=O)N2C[C@H]3CN(Cc4cccnc4)C[C@H]3C2)c1 | 1.66
108 | CO[C@@H]1CCN(c2ncc(F)cn2)[C@@H]2CN(Cc3cccnc3)C[C@@H]21 | -0.732
